Laboratory results published in US20260242416A1, “ANTIMICROBIAL PEPTIDES” (priority 2023, published 2026).
Converted amounts (≈) assume the structure as drawn. Where a SMILES comes first, the peptide text is derived from it.

Tests used:
[1] = tested on: E. coli ATCC 25922; type: cell-based, Escherichia coli; conditions: ATCC 25922
Summary of the method: (§1)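 MIC taken as lowest peptide level showing no visible growth after 20-24 h at 37° C. Twofold series 128-0.5 μg/mL in Mueller-Hinton broth, polypropylene plates, final inoculum 2-8×10^5 cfu/mL, per CLSI with cationic-peptide adaptations.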

[2] = tested on: Salmonella enterica serovar Enteritidis (human clinical isolate); type: cell-based; conditions: serovar Enteritidis (human clinical isolate)
Summary of the method: as §1

[3] = tested on: S. aureus ATCC 29213; type: cell-based, Staphylococcus aureus; conditions: ATCC 29213
Summary of the method: as §1

[4] = tested on: E. coli ATCC 25922, Salmonella Enteritidis, S. aureus ATCC 29213; experiment: Broth microdilution, panel result (at least one / all strains), Example 2; type: cell-based; parameters: key to inhibitory activity (asterisk): *Indicates inhibitory activity; conditions: Table 14; against at least one of E. coli ATCC 25922, Salmonella Enteritidis, S. aureus ATCC 29213
Procedure: The antimicrobial activity of the putative AMPs was determined by a broth microdilution assay as described by the Clinical and Laboratory Standards Institute, with the published adaptations for testing of cationic peptides. Escherichia coli 25922 and Staphylococcus aureus 29213 isolates were purchased from the American Type Culture Collection (ATCC; Manassas, VA, USA). A human clinical isolate of Salmonella enterica serovar Enteritidis was provided by the BC Centre for Disease Control. Bacteria from stocks stored at −80° C. were streaked onto nonselective Columbia blood agar with 5% sheep blood (Oxoid) and incubated overnight at 37° C. Next, 2-4 colonies were streaked onto a new agar plate to ensure uniform health of colonies used in the broth microdilution assay. Isolated colonies were suspended in MHB and the optical density was measured with a spectrophotometer to create an initial inoculum concentration of approximately 1×10^8 cfu/mL. The inoculum was diluted 1:250 to a final concentration of 2-8×10^5 cfu/mL, which was confirmed by performing a Total Viability Count (TVC). The TVC consisted of plating a 1:1000 dilution of the final inoculum on nonselective media and was also used to confirm the health and purity of the inoculum in each trial.
Lyophilized 80 μg peptide aliquots synthesized by GenScript (Piscataway, NJ, USA) were resuspended to 1.28 mg/mL with UltraPure water (Thermo Fisher Scientific, Waltham, MA, USA) and serially diluted in polypropylene 96-well microtiter plates (Greiner Bio-One #650261, Kremsmunster, Austria) from 128 down to 0.5 μg/mL. Two columns per plate were reserved for growth and sterility controls. Inoculum was added to the wells containing the peptide and the growth control. Plates were incubated for 20-24 h at 37° C. The minimum inhibitory concentration (MIC) was determined as the lowest peptide concentration where there was no visible bacterial growth.

Row | SMILES | MIC (ug/mL) E. coli [1] | MIC (ug/mL) S. Enteritidis [2] | MIC (ug/mL) S. aureus [3] | inhibitory activity (asterisk) [4]
1 | CC[C@H](C)[C@H](NC(=O)[C@@H]1CCCN1C(=O)[C@H](CS)NC(=O)[C@H](C)NC(=O)[C@@H](N)Cc1ccccc1)C(=O)NCC(=O)N[C@@H](Cc1ccccc1)C(=O)N[C@@H](Cc1ccccc1)C(=O)N[C@@H](CCCNC(=N)N)C(=O)N[C@@H](CC(C)C)C(=O)N[C@@H](CCCCN)C(=O)N[C@@H](CCCNC(=N)N)C(=O)O [CaCa1, FACPIGFFRLKR] (H-FACPIGFFRLKR-OH; N-terminus and C-terminus assumed) | 128/>128/>128 ug/mL | 128/>128/>128 ug/mL | 128/>128/>128 ug/mL | 826.* FACPIGFFRLKR
2 | CC[C@H](C)[C@H](NC(=O)CNC(=O)[C@H](C)NC(=O)[C@@H](NC(=O)[C@@H](NC(=O)[C@H](CO)NC(=O)[C@H](C)NC(=O)[C@@H](NC(=O)[C@H](CCCCN)NC(=O)[C@H](CCCCN)NC(=O)[C@H](C)NC(=O)[C@@H](NC(=O)[C@H](CC(=O)O)NC(=O)[C@H](CC(C)C)NC(=O)[C@H](Cc1c[nH]c2ccccc12)NC(=O)CN)[C@@H](C)CC)C(C)C)C(C)C)C(C)C)C(=O)N[C@H](C(=O)N[C@@H](CCCCN)C(=O)N[C@@H](CCCNC(=N)N)C(=O)O)C(C)C [LiVe1, GWLDIAKKVASVVAGIVKR] (H-GWLDIAKKVASVVAGIVKR-OH; N-terminus and C-terminus assumed) | 4 to 8 µg/mL | 32 µg/mL (≈ 15.9 µM) | 16 to 32 µg/mL | 37.* GWLDIAKKVASVVAGIVKR
3 | CC[C@H](C)[C@H](NC(=O)[C@H](CC(=O)O)NC(=O)[C@H](CC(C)C)NC(=O)[C@H](Cc1c[nH]c2ccccc12)NC(=O)CN)C(=O)N[C@@H](C)C(=O)N[C@@H](CCCCN)C(=O)N[C@@H](CCCCN)C(=O)N[C@H](C(=O)N[C@@H](C)C(=O)N[C@@H](CO)C(=O)N[C@H](C(=O)N[C@H](C(=O)N[C@@H](C)C(=O)NCC(=O)N[C@@H](CC(C)C)C(=O)NCC(=O)N[C@@H](CCCCN)C(=O)N[C@@H](CCCNC(=N)N)C(=O)O)C(C)C)C(C)C)C(C)C [LiVe2, GWLDIAKKVASVVAGLGKR] (H-GWLDIAKKVASVVAGLGKR-OH; N-terminus and C-terminus assumed) | 4 to 8 µg/mL | 64 to 128 µg/mL | 64 µg/mL (≈ 32.5 µM) | 40.* GWLDIAKKVASVVAGLGKR
4 | CC(C)C[C@H](NC(=O)[C@H](CCCCN)NC(=O)[C@H](Cc1c[nH]c2ccccc12)NC(=O)[C@H](CC(C)C)NC(=O)[C@@H](NC(=O)[C@H](CC(C)C)NC(=O)[C@H](Cc1ccccc1)NC(=O)[C@H](CC(C)C)NC(=O)[C@@H](N)CCCCN)[C@@H](C)O)C(=O)N[C@@H](CCCCN)C(=O)N[C@@H](CCCNC(=N)N)C(=O)O [NaVi3, KLFLTLWKLKR] (H-KLFLTLWKLKR-OH; N-terminus and C-terminus assumed) | 8 to 16 µg/mL | 64 µg/mL (≈ 44.3 µM) | 128 µg/mL (≈ 88.5 µM) | 895.* KLFLTLWKLKR
5 | CC[C@H](C)[C@H](NC(=O)CNC(=O)[C@H](CO)NC(=O)[C@H](CC(C)C)NC(=O)[C@H](CC(C)C)NC(=O)CN)C(=O)N[C@@H](CC(C)C)C(=O)NCC(=O)N[C@@H](C)C(=O)NCC(=O)N[C@@H](CCCCN)C(=O)N[C@@H](CCCCN)C(=O)N[C@H](C(=O)N[C@H](C(=O)N[C@@H](CS)C(=O)NCC(=O)N[C@@H](Cc1ccccc1)C(=O)N[C@@H](CO)C(=O)NCC(=O)N[C@@H](CC(C)C)C(=O)N[C@@H](CS)C(=O)O)C(C)C)[C@@H](C)CC [OdMa1] (H-GLLSGILGAGKKIVCGFSGLC-OH; N-terminus and C-terminus assumed) | 8 to 16 µg/mL | 128 µg/mL (≈ 64.2 µM) | 64 µg/mL (≈ 32.1 µM) | 71.* GLLSGILGAGKKIVCGFSGLC
6 | CC[C@H](C)[C@H](NC(=O)[C@H](CCCCN)NC(=O)[C@H](CCCCN)NC(=O)CNC(=O)[C@H](C)NC(=O)CNC(=O)[C@H](CC(C)C)NC(=O)[C@H](CC(C)C)NC(=O)CNC(=O)[C@H](CO)NC(=O)[C@H](CC(C)C)NC(=O)[C@H](CC(C)C)NC(=O)CN)C(=O)N[C@H](C(=O)N[C@@H](CS)C(=O)NCC(=O)N[C@@H](CC(C)C)C(=O)N[C@@H](CO)C(=O)NCC(=O)N[C@@H](CCSC)C(=O)N[C@@H](CS)C(=O)O)C(C)C [OdMa3] (H-GLLSGLLGAGKKIVCGLSGMC-OH; N-terminus and C-terminus assumed) | 8 to 16 µg/mL | 64 µg/mL (≈ 32.4 µM) | 32 µg/mL (≈ 16.2 µM) | 59.* GLLSGLLGAGKKIVCGLSGMC
7 | CC[C@H](C)[C@H](NC(=O)[C@@H](N)C(C)C)C(=O)N1CCC[C@H]1C(=O)N[C@@H](Cc1ccccc1)C(=O)N[C@H](C(=O)N[C@@H](C)C(=O)N[C@@H](CO)C(=O)N[C@H](C(=O)N[C@@H](C)C(=O)N[C@@H](C)C(=O)N[C@@H](CCC(=O)O)C(=O)N[C@@H](CCSC)C(=O)N[C@@H](CCSC)C(=O)N[C@@H](Cc1c[nH]cn1)C(=O)N[C@@H](Cc1c[nH]cn1)C(=O)N[C@H](C(=O)N[C@@H](Cc1ccc(O)cc1)C(=O)N[C@@H](CS)C(=O)N[C@@H](C)C(=O)N[C@@H](C)C(=O)N[C@@H](CO)C(=O)N[C@@H](CCCCN)C(=O)N[C@@H](CCCNC(=N)N)C(=O)N[C@@H](CS)C(=O)N[C@@H](CCCCN)C(=O)N[C@@H](CC(N)=O)C(=O)O)C(C)C)C(C)C)C(C)C [PeNi7] (H-VIPFVASVAAEMMHHVYCAASKRCKN-OH; N-terminus and C-terminus assumed) | – | – | – | 1088.* VIPFVASVAAEMMHHVYCAASKRCKN
8 | CC[C@H](C)[C@H](NC(=O)CN)C(=O)N[C@@H](CC(C)C)C(=O)N[C@@H](CC(C)C)C(=O)N[C@@H](CC(N)=O)C(=O)N[C@H](C(=O)N[C@@H](CC(C)C)C(=O)N[C@@H](CCCCN)C(=O)NCC(=O)N[C@@H](C)C(=O)N[C@@H](C)C(=O)N[C@@H](CCCCN)C(=O)N[C@@H](CC(N)=O)C(=O)N[C@H](C(=O)N[C@@H](C)C(=O)NCC(=O)N[C@H](C(=O)N[C@@H](CC(C)C)C(=O)N[C@@H](CC(C)C)C(=O)N[C@@H](CC(=O)O)C(=O)N[C@@H](CCCCN)C(=O)N[C@@H](CC(C)C)C(=O)N[C@@H](CCCCN)C(=O)N[C@@H](CS)C(=O)N[C@@H](CCCCN)C(=O)N[C@H](C(=O)N[C@H](C(=O)NCC(=O)NCC(=O)N[C@@H](CS)C(=O)O)[C@@H](C)O)[C@@H](C)CC)C(C)C)C(C)C)[C@@H](C)O [PeNi8] (H-GILLNTLKGAAKNVAGVLLDKLKCKITGGC-OH; N-terminus and C-terminus assumed) | – | – | – | 1097.* GILLNTLKGAAKNVAGVLLDKLKCKITGGC
9 | CC[C@H](C)[C@H](NC(=O)[C@H](CO)NC(=O)[C@@H]1CCCN1C(=O)[C@H](CC(C)C)NC(=O)[C@@H](NC(=O)[C@H](CCCCN)NC(=O)[C@H](C)NC(=O)[C@H](C)NC(=O)[C@H](CC(C)C)NC(=O)CNC(=O)[C@H](C)NC(=O)[C@@H](NC(=O)[C@@H](NC(=O)[C@@H]1CCCN1C(=O)[C@H](CC(C)C)NC(=O)[C@@H](N)Cc1ccccc1)C(C)C)C(C)C)C(C)C)C(=O)N[C@H](C(=O)N[C@@H](CS)C(=O)N[C@@H](C)C(=O)N[C@H](C(=O)N[C@H](C(=O)N[C@@H](CCCCN)C(=O)N[C@@H](CCCCN)C(=O)N[C@@H](CS)C(=O)O)[C@@H](C)O)C(C)C)[C@@H](C)CC [RaCa15] (H-FLPVVAGLAAKVLPSIICAVTKKC-OH; N-terminus and C-terminus assumed) | – | – | – | 1098.* FLPVVAGLAAKVLPSIICAVTKKC
10 | CC[C@H](C)[C@H](NC(=O)[C@H](CO)NC(=O)[C@@H]1CCCN1C(=O)[C@H](CC(C)C)NC(=O)[C@@H](NC(=O)[C@H](CCCCN)NC(=O)[C@H](C)NC(=O)[C@H](C)NC(=O)[C@H](CC(C)C)NC(=O)CNC(=O)[C@H](C)NC(=O)[C@@H](NC(=O)[C@@H](NC(=O)[C@@H]1CCCN1C(=O)[C@H](CC(C)C)NC(=O)[C@H](Cc1ccccc1)NC(=O)[C@H](CCCNC(=N)N)NC(=O)[C@H](CCC(N)=O)NC(=O)[C@H](CCC(=O)O)NC(=O)[C@@H](N)CCC(=O)O)C(C)C)C(C)C)C(C)C)C(=O)N[C@H](C(=O)N[C@@H](CS)C(=O)N[C@@H](C)C(=O)N[C@H](C(=O)N[C@H](C(=O)N[C@@H](CCCCN)C(=O)N[C@@H](CCCCN)C(=O)N[C@@H](CS)C(=O)O)[C@@H](C)O)C(C)C)[C@@H](C)CC [RaSy2] (H-EEQRFLPVVAGLAAKVLPSIICAVTKKC-OH; N-terminus and C-terminus assumed) | – | – | – | 673.* EEQRFLPVVAGLAAKVLPSIICAVTKKC
